# [ ]: non-standard residue; d: D form. pS = N[C@@H](COP(=O)(O)O)C(=O)O
# T1: zMiga2-GST (Danio rerio, UniProt Q5BLE2)
# T1 construct: gene miga2; LD targeting domain, residues 310-568, C-terminal GST fusion kept; E. coli
# T1 sequence (Q5BLE2 310-568): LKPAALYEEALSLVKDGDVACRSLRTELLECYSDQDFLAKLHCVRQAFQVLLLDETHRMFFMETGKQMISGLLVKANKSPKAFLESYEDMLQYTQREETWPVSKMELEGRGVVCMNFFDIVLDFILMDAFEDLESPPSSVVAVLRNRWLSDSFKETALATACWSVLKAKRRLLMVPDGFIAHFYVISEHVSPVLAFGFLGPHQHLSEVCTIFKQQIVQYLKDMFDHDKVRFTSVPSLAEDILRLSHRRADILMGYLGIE
# T2: zMiga2 (Danio rerio, UniProt Q5BLE2, V430W/F488W)
# T2 construct: gene miga2; LD targeting domain, residues 310-568; E. coli BL21(DE3); His6 tag cleaved by TEV
# T2 sequence (Q5BLE2 310-568 V430W/F488W): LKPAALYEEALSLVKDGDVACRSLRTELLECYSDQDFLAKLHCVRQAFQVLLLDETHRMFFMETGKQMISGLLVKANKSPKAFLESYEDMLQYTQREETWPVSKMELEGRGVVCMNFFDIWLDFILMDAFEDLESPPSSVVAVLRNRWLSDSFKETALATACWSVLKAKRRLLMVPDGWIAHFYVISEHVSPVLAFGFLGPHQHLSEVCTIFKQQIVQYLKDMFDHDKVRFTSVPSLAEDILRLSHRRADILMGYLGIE
# T3: zMiga2 (Danio rerio, UniProt Q5BLE2, V430W)
# T3 construct: gene miga2; LD targeting domain, residues 310-568; E. coli BL21(DE3); His6 tag cleaved by TEV
# T3 sequence (Q5BLE2 310-568 V430W): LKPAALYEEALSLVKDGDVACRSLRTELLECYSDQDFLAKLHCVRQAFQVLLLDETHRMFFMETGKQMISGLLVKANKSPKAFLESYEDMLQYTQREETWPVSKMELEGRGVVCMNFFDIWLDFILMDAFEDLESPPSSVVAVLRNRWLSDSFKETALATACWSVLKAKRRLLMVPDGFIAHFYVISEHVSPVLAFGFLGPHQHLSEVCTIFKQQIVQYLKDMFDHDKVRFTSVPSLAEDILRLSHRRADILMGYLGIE
# T4: zMiga2 (Danio rerio, UniProt Q5BLE2)
# T4 construct: gene miga2; LD targeting domain, residues 310-568; E. coli BL21(DE3); His6 tag cleaved by TEV
# T4 sequence (Q5BLE2 310-568): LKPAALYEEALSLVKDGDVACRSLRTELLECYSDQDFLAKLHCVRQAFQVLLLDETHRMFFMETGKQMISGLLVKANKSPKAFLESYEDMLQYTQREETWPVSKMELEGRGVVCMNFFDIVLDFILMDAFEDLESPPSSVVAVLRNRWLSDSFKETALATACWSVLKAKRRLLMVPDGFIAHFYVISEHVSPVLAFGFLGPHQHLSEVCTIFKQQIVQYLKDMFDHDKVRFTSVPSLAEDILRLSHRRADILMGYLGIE
# T5: zMiga2 (Danio rerio, UniProt Q5BLE2, W409A)
# T5 construct: gene miga2; LD targeting domain, residues 310-568; E. coli BL21(DE3); His6 tag cleaved by TEV
# T5 sequence (Q5BLE2 310-568 W409A): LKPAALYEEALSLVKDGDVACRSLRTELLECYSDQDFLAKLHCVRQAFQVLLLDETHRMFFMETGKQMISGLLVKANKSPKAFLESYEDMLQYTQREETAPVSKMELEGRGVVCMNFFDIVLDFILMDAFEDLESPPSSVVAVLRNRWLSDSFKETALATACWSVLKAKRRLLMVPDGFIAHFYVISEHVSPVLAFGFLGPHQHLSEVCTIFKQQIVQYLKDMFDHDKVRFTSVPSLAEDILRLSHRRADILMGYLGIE
# T6: zMiga2 (Danio rerio, UniProt Q5BLE2, F488W)
# T6 construct: gene miga2; LD targeting domain, residues 310-568; E. coli BL21(DE3); His6 tag cleaved by TEV
# T6 sequence (Q5BLE2 310-568 F488W): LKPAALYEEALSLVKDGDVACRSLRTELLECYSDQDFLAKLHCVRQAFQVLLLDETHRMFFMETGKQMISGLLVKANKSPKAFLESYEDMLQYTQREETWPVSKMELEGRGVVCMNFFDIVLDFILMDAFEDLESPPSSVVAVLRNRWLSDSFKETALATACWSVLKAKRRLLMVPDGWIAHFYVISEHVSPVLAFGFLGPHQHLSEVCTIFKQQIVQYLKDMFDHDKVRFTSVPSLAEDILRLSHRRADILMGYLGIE
# T7: mMIGA1^313–573 (Mus musculus, UniProt Q4QQM5)
# T7 construct: gene Miga1; LD targeting domain, residues 313-573; E. coli; His6 tag cleaved by TEV
# T7 sequence (Q4QQM5 313-573): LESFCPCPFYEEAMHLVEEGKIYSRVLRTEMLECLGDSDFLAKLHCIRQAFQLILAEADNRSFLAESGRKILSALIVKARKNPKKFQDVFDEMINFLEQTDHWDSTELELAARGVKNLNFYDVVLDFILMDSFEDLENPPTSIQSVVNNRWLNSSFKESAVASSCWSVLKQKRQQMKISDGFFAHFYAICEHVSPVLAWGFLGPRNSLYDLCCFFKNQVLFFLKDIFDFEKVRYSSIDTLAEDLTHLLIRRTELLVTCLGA
# Key:
# zMiga2-GST = molecular target: T1, zMiga2-GST; test: preloading, glutathione bead wash, Clear Native-PAGE fluorescence; type: binding; conditions: labelled compound; probe of the displacement assay
# zMiga2 [1] = molecular target: T2, zMiga2; test: Clear Native-PAGE, NBD fluorescence; type: binding; conditions: labelled compound; pH 7.5, on ice, 2 h
# zMiga2 [2] = molecular target: T3, zMiga2; test: Clear Native-PAGE, NBD fluorescence; type: binding; conditions: labelled compound; pH 7.5, on ice, 2 h
# zMiga2 [3] = molecular target: T4, zMiga2; test: Clear Native-PAGE, NBD fluorescence; type: binding; conditions: labelled compound; pH 7.5, on ice, 2 h; hydrophobic cavity
# zMiga2 [4] = molecular target: T5, zMiga2; test: Clear Native-PAGE, NBD fluorescence; type: binding; conditions: labelled compound; pH 7.5, on ice, 2 h
# zMiga2 [5] = molecular target: T6, zMiga2; test: Clear Native-PAGE, NBD fluorescence; type: binding; conditions: labelled compound; pH 7.5, on ice, 2 h
# mMIGA1^313–573 = molecular target: T7, mMIGA1^313–573; test: Clear Native-PAGE, NBD fluorescence; type: binding; conditions: labelled compound; pH 7.5, on ice, 2 h
# [6] = molecular target: T8, MSP domain of mouse VAPB (residues 1-125) (mouse (Mus musculus), UniProt Q9QY76 1-125); test: ITC; Microcal ITC200, 25 °C, buffer C (25 mM Tris-HCl pH 7.5, 150 mM NaCl, 4 mM β-mercaptoethanol); 20 injections of 2 μl; 1:1 binding model; conditions: both partners purified
# T8 construct: vesicle-associated membrane protein-associated protein B/C (VAPB), mouse, MSP domain, residues 1-125; In the liposome clustering (DLS) and tethered lipid transfer assays a His-tagged form (His-mVAPB) was used; also called mVAPB; wild-type mVAPB
# T8 sequence (Q9QY76 1-125): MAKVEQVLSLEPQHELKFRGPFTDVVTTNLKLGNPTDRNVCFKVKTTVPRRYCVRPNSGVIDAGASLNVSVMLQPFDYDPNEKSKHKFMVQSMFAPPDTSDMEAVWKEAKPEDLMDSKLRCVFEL
# [7] = molecular target: T9, MSP domain of mouse VAPB (residues 1-125), K87L/K118L (mouse (Mus musculus), UniProt Q9QY76 1-125, K87L | K118L); test: as above; conditions: both partners purified
# T9 construct: vesicle-associated membrane protein-associated protein B/C (VAPB), mouse, MSP domain, residues 1-125, K87L/K118L; also called mVAPB K87L/K118L
# T9 sequence (Q9QY76 1-125 K87L/K118L): as the sequence (Q9QY76 1-125) above, with K87L, K118L counted along it
# [8] = molecular target: T10, MSP domain of mouse VAPB (residues 1-125), K43L/K45L (mouse (Mus musculus), UniProt Q9QY76 1-125, K43L | K45L); test: as above; conditions: both partners purified
# T10 construct: vesicle-associated membrane protein-associated protein B/C (VAPB), mouse, MSP domain, residues 1-125, K43L/K45L; also called mVAPB K43L/K45L
# T10 sequence (Q9QY76 1-125 K43L/K45L): as the sequence (Q9QY76 1-125) above, with K43L, K45L counted along it
molecule,measurement,setting,value
"CCCCCCCCCCCCCCCC(=O)OC[C@H](COP(=O)([O-])OCC[N+](C)(C)C)OC(=O)CCCCCCCCCCCNc1ccc([N+](=O)[O-])c2nonc12 [NBD-PC, 1-palmitoyl-2-{12-[(7-nitro-2-1,3-benzoxadiazol-4-yl)amino]dodecanoyl}-sn-glycero-3-phosphocholine]","preloading, glutathione bead wash, Clear Native-PAGE fluorescence",zMiga2-GST,The NBD-PC bound zMiga2 was incubated with natural lipids across a range of concentrations
"CCCCCCCC/C=C\CCCCCCCC(=O)OC[C@H](COP(=O)(O)OCCNc1ccc([N+](=O)[O-])c2nonc12)OC(=O)CCCCCCC/C=C\CCCCCCCC [NBD-PE, 1,2-dioleoyl-sn-glycero-3-phosphoethanolamine-N-(7-nitro-2-1,3-benzoxadiazol-4-yl)]",lipid binding relative to WT,zMiga2 [1],double mutant showed decreased lipid-binding that was less than half of that of the wild type
same,lipid binding relative to WT,zMiga2 [2],the V430W or F488W single mutant showed a slight decrease in NBD-PE binding
same,"Clear Native-PAGE, NBD fluorescence",zMiga2 [3],explored the ability of the mutant proteins to interact with NBD-PE
same,NBD-PE binding relative to WT,zMiga2 [4],~ 2 fold
same,lipid binding relative to WT,zMiga2 [5],the V430W or F488W single mutant showed a slight decrease in NBD-PE binding
same,"Clear Native-PAGE, NBD fluorescence",mMIGA1^313–573,NBD-PE binding by MIGA1 was markedly lower than that by MIGA2
"Ac-SED[pS]FF[pS]ATE-NH2 (SMILES CC(=O)N[C@@H](CO)C(=O)N[C@@H](CCC(=O)O)C(=O)N[C@@H](CC(=O)O)C(=O)N[C@@H](COP(=O)(O)O)C(=O)N[C@@H](Cc1ccccc1)C(=O)N[C@@H](Cc1ccccc1)C(=O)N[C@@H](COP(=O)(O)O)C(=O)N[C@@H](C)C(=O)N[C@H](C(=O)N[C@@H](CCC(=O)O)C(N)=O)[C@@H](C)O, also called mMIGA2^pFFAT; phosphorylated FFAT peptide; source: synthetic peptide, purified by HPLC) [phosphorylated FFAT motif peptide of mouse MIGA2 (residues 289-298)]",Kd,[6],1700 ± 200 nM
same,fold lower binding affinity than wild type mVAPB,[7],3 fold
same,fold lower binding affinity than wild type mVAPB,[8],5 fold
